Source: patent publication US5789403A, “Substituted thiazolo [3,2-a]azepine derivatives” (Eisai Co., Ltd., priority 1994, dated 1998)

How the values were obtained:
[1] = target: T1, NEP (neutral endpeptidase) (Rattus norvegicus, UniProt P07861); assay: NEP inhibiting activity with rat kidney cortex membrane fraction; format: biochemical; conditions: substrate Benzoyl-Gly-Arg-Arg-2-naphthylamide, 540 nm
T1 construct: membrane fraction prepared from the kidney cortex of rat; from tissue; host or cells: rat kidney cortex membrane fraction
T1 sequence (P07861 1-750): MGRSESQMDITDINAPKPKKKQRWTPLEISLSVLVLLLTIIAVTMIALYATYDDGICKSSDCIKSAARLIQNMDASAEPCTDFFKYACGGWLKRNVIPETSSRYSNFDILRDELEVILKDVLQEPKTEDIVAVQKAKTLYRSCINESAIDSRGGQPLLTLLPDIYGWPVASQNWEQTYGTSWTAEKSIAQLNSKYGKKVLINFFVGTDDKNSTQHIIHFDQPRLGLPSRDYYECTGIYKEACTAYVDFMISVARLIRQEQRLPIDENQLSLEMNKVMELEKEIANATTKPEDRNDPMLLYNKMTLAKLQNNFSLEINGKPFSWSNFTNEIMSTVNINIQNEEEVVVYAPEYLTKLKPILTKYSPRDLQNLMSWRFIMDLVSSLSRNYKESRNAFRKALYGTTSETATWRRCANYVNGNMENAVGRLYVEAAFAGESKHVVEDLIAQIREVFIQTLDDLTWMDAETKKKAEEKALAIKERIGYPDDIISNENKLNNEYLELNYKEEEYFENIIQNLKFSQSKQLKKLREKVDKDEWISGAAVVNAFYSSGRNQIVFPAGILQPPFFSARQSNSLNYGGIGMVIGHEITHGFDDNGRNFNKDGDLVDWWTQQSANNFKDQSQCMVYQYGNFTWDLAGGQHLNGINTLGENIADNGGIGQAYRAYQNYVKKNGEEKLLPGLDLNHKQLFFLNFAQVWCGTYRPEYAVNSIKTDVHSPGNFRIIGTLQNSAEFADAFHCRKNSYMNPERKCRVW
Procedure: Determination of NEP inhibiting activities of medicaments with rat kidney cortex
NEP activity was determined with the membrane fraction prepared from the kidney cortex of rat according to the process of Booth and Kenny (A Rapid Method for the Purification of Microvilli from Rabbit Kidney., Andrew G. Booth and A. John Kenny, Biochem J., 1974, 142, 575-581).
The NEP activity was determined according to the process of Orlowsky and Wilk (Purification and Specificity of a Membrane-Bound Metalloendpeptidase from Bovine Pituitaries., Marian Orlowsky and Shrwin Wilk, Biochemistry, 1981, 20, 4942-4950.) by the following method.
Benzoyl-glycyl-arginyl-arginyl-2-naphthylamide (Benzoyl-Gly-Arg-Arg-2-napththylamide (Nova Biochem, Switzerland)) was used as substrate. The naphthylamine liberated in the presence of the NEP enzyme sample and excess of leucine aminopeptidase (Sigma Chemical Co., U.S.A.) was color-developed with […] (Sigma Chemical Co., U.S.A.) and the absorbance at a wavelength of 540 nm was determined.
The NEP inhibiting activity was determined by adding the test compound to the above experiment system in final concentrations of 1, 3, 10, 30, 100, 300 and 1000 nM to form an inhibition curve and determining the concentration at which 50% of the activity was inhibited as IC50. [4S-(4α,7α(R*), 12bβ]]-7-[(1-oxo-2(S)-thio-3-phenylpropyl)amino]-1,2,3,4,6,7,8,12b-octahydro-6-oxopyrido[2,1-a] [2] benzazepine-4-carboxylic acid (which is a compound disclosed in Japanese Patent Publication-A No. 4-282382) was used as the control compound.

[2] = target: T2, ACE (angiotensin I converting enzyme) (Rattus norvegicus, UniProt P47820); assay: ACE inhibiting activity with rat lung membrane fraction; format: biochemical; conditions: substrate Hippuryl-His-Leu, borate buffer pH 8.3, 228 nm
T2 construct: membrane fraction prepared from the lung of rat; from tissue; host or cells: rat lung membrane fraction
T2 sequence (P47820 36-1313): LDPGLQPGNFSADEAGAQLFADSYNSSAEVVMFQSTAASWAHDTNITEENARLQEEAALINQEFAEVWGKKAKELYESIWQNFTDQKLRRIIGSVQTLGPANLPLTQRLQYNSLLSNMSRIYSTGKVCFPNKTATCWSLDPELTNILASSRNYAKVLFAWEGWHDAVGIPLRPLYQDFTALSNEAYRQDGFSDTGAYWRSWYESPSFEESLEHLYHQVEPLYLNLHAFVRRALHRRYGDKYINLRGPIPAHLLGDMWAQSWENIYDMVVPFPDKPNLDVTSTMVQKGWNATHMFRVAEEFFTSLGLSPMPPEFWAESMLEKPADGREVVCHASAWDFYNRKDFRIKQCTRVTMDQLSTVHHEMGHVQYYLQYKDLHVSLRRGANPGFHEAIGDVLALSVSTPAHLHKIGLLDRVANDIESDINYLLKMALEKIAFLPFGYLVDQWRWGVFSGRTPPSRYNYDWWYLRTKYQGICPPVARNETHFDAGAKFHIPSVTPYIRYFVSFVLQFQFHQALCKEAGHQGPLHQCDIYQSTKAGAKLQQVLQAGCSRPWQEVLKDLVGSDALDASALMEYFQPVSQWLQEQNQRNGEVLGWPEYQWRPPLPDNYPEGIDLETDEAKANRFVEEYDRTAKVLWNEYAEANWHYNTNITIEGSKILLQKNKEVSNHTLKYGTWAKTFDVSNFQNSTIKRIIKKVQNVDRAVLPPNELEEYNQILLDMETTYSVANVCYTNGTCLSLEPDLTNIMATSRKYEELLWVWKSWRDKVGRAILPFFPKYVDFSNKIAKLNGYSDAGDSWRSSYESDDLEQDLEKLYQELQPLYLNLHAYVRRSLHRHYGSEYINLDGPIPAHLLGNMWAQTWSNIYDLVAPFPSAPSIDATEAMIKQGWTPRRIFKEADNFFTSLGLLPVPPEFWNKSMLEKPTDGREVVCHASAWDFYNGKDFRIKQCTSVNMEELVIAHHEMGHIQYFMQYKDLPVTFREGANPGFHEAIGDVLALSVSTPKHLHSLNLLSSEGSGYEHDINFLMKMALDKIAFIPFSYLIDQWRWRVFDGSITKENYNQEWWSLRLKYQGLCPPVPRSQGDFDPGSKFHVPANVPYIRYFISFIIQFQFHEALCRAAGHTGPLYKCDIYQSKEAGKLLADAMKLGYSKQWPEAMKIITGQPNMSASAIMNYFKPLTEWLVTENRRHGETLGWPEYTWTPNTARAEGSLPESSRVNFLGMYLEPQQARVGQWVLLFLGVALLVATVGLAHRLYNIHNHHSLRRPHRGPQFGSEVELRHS
Procedure: Determination of ACE inhibiting activities of medicaments with rat lung
ACE inhibiting activity was examined with the membrane fraction prepared from the lung of rat according to the method of Wu-Wong et al. (Characterization of Endthelin Converting Enzyme in Rat Lung, Junshyum R. Wu-Wong, Gerald P. Budzik, Edward M. Devine and Terry J. Opgenorth, Biochem. Biophys. Res. Commun., 1990, 171, 1291-1296.).
The ACE activity was determined by a modification (wherein the pH of the borate buffer was changed to 8.3) of the Cushman-Cheung method (Spectrophotometric Assay and Properties of the Angiotensin-Converting Enzyme of Rabbit Lung., Cushman D. W. and Cheung H. S., 1971, 20, 1637-1648).
The hippurate liberated from Hippuryl-histidylleucine (Hippuryl-His-Leu (Peptidelnstitute lnc., Japan)) in the presence of ACE was extracted with ethyl acetate and the absorbance at a wavelength of 228 nm was determined.
The ACE inhibiting activity was determined by adding the test compound to the above experiment system in final concentrations of 1, 3, 10, 30, 100, 300 and 1000 nM to form an inhibition curve and determining the concentration at which 50% of the activity was inhibited as IC50. [4S-[4α,7α(R*),12bβ]]-7-[(1-oxo-2(S)-thio-3-phenylpropyl)amino]-1,2,3,4,6,7,8,12b-octahydro-6-oxopyrido[2,1-a] [2]benzazepine-4-carboxylic acid (which is a compound disclosed in Japanese Patent Publication-A No. 4-282382) was used as the control compound.

Row | SMILES | IC50 [1] | IC50 [2]
1 | CC[C@H](C)[C@H](S)C(=O)N[C@H]1C[C@H](C)C[C@H]2SC[C@@H](C(=O)O)N2C1=O [Example 10, [3R-(3α,6α,8β,9aβ)]-6-[[(2S,3S)-1-Oxo-2-thio-3-methylpentyl]amino]-8-methyl-octahydro-5-oxothiazolo[3,2-a]azepine-3-carboxylic acid] | 12 nM | 4.3 nM
2 | CC[C@H](C)[C@H](S)C(=O)N[C@H]1C[C@@H](C)C[C@H]2SC[C@@H](C(=O)O)N2C1=O [Example 9, [3R-(3α,6α,8α,9aβ)]-6-[[(2S,3S)-1-Oxo-2-thio-3-methylpentyl]amino]-8-methyl-octahydro-5-oxothiazolo[3,2-a]azepine-3-carboxylic acid] | 13 nM | 5.1 nM

The next compounds have a lower IC50 [1] than those just listed; values first:

Row | IC50 [1] | IC50 [2] | SMILES
3 | 6.7 nM | 2.2 nM | CC[C@H](C)[C@H](S)C(=O)N[C@H]1CC[C@@H](C)[C@H]2SC[C@@H](C(=O)O)N2C1=O [Example 11, [3R-(3α,6α,9α,9aβ)]-6-[[(2S,3S)-1-Oxo-2-thio-3-methylpentyl]amino]-9-methyl-5-oxo-octahydrothiazolo[3,2-a]azepine-3-carboxylic acid]
4 | 4.3 nM | 2.5 nM | CC[C@H](C)[C@H](S)C(=O)N[C@H]1CC[C@H](C)[C@H]2SC[C@@H](C(=O)O)N2C1=O [Example 3, [3R-(3α,6α,9β,9aβ)]-6-[[(2S,3S)-1-Oxo-2-thio-3-methylpentyl]amino]-9-methyl-5-oxo-octahydrothiazolo[3,2-a]azepine-3-carboxylic acid]
5 | 1.5 nM | 2.5 nM | CC[C@H]1CC[C@H](NC(=O)[C@@H](S)[C@@H](C)CC)C(=O)N2[C@@H]1SC[C@H]2C(=O)O [Example 24, [3R-(3α,6α,9β,9aβ)]-6-[[(2S,3S)-1-Oxo-2-thio-3-methylpentyl]amino]-9-ethyl-5-oxo-octahydrothiazolo[3,2-a]azepine-3-carboxylic acid]
